Results taken from US20140094413A1, “HEPATOCYTE GROWTH FACTOR (HGF) MIMICS AS THERAPEUTIC AGENTS” (WASHINGTON STATE UNIVERSITY, priority 2012, published 2014).
Values joined by “and” are separate entries in the source; they are usually repeats but may differ in a detail not shown here. Identical values can stand only once. Where a SMILES comes first, the peptide text is derived from it. [ ]: non-standard residue; d: D form. The star is where a group is joined. Nle = CCCC[C@H](N)C(=O)O; Hexanoyl = CCCCCC(=O)*; Ahx = NCCCCCC(=O)O

Assays:
hippocampal neurons = test: Spinogenesis in mRFP-β-actin transfected dissociated hippocampal neurons; format: cell-based, rat; settings: for Spine numbers (spinogenesis) vs vehicle: 1 μM as printed in FIG. 34 legend; for Number of spines per 50 μm dendrite length: 10^−10 M; for Increase in the number of spines vs vehicle: 5 day treatment; for Spine density, dose dependence: 5 day stimulation, wide range of concentrations
Procedure: (§1) Hippocampal neurons (2×10^5 cells per square cm) were cultured from P1 Sprague Dawley rats on plates coated with poly-L-lysine from Sigma (St. Louis, Mo.; molecular weight 300,000). Hippocampal neurons were maintained in Neurobasal A media from Invitrogen (Carlsbad, Calif.) supplemented with B27 from Invitrogen, 0.5 mM L-glutamine, and […] cytosine-D-arabinofuranoside from Sigma added at 2 days in vitro. Hippocampal neurons were then cultured a further 3-7 days, at which time they were either transfected or treated with various pharmacological reagents as described in (Wayman, Davare et al. 2008).
(§2) Neurons were transfected with mRFP-β-actin on day in vitro 6 (DIV6) using LipofectAMINE™ 2000 (Invitrogen) according to the manufacturer's protocol. This protocol yielded the desired 3-5% transfection efficiency thus enabling the visualization of individual neurons. Higher efficiencies obscured the dendritic arbor of individual neurons. Expression of fluorescently tagged actin allowed clear visualization of dendritic spines, as dendritic spines are enriched in actin. […] On DIV 12 the neurons were fixed (4% paraformaldehyde, 3% sucrose, 60 mM PIPES, 25 mM HEPES, 5 mM EGTA, 1 mM MgCl2, pH 7.4) for 20 min at room temperature and mounted. Slides were dried for at least 20 hours at 4° C. and fluorescent images were obtained with Slidebook 4.2 Digital Microscopy Software driving an Olympus IX81 inverted confocal microscope with a 60× oil immersion lens, NA 1.4 and resolution 0.280 μm Dendritic spine density was measured on primary and secondary dendrites at a distance of at least 150 μm from the soma. Five 50 μm long segments of dendrite from at least 10 neurons per data point were analyzed for each data point reported. Each experiment was repeated at least three times using independent culture preparations. Dendrite length was determined using the National Institutes of Health's Image J 1.41o program (NIH, Bethesda, Md.) and the neurite tracing program Neuron J (Meijering, Jacob et al. 2004) Spines were manually counted.
as §1, with “centimeter)” for “cm)”, “P1-2” for “P1”, “the text or figure legends.” for “(Wayman, Davare et al. 2008).”
as §2, with “DIV12” for “DIV 12”, “Dendrite length was determined using the National Institutes of Health's Image J 1.41o program (NIH, Bethesda, Md.) and the neurite tracing program Neuron J (Meijering, Jacob et al. 2004) Spines were manually counted.” left out

CA1 hippocampal neurons = test: Spinogenesis in organotypic hippocampal slice cultures; format: cell-based, rat
Procedure: (§3) Hippocampi from P4 Sprague Dawley rats were cultured as previously described (Wayman, Impey et al. 2006). Briefly, 400 μm slices were cultured on (Milipore, Billerica, Mass.) for 3 days after which they were biolistically transfected with tomato fluorescent protein (TIT) using a Helios Gen Gun (BioRad, Hercules, Calif.), according to the manufacturer's protocol, to visualize dendritic arbors. Following a 24 hour recovery period slices were stimulated with vehicle (H2O), […] Nle1-AngIV or Dihexa for 2 days. Slices were fixed and mounted. Hippocampal CA1 neuronal processes were imaged and measured as described above.
as §3, with “(TFP)” for “(TIT)”, “Gene” for “Gen”, “with” for “with vehicle (H2O),”

[1] = 10^−12 M, acute 30 minute application on DIV 12

Molecule	Spine numbers (spinogenesis) vs vehicle (hippocampal neurons)	Number of spines per 50 μm dendrite length (hippocampal neurons; 5 days)	Average spine head width (hippocampal neurons; 10^−12 M)	Increase in the number of spines vs vehicle (hippocampal neurons; 10^−12 M)	Mean spine numbers per 50 μm dendrite length (hippocampal neurons; [1])	Spine density, dose dependence (hippocampal neurons)	Spines per 50 μm dendrite length, CA1 neurons (CA1 hippocampal neurons; 10^−12 M, 2 days)	Mean spine numbers per 50 μm dendrite length (hippocampal neurons; HGF 2.5 ng/ml (sub-threshold), 5 days)	Mean spine numbers per 50 μm dendrite length (hippocampal neurons; HGF 5 ng/ml, 5 days)	Mean spine numbers per 50 μm dendrite length (hippocampal neurons; HGF 10 ng/ml, 5 days)	Mean spine numbers per 50 μm dendrite length (hippocampal neurons; HGF 20 ng/ml, 5 days)	Spines per 50 μm dendrite length, CA1 neurons (CA1 hippocampal neurons; HGF 10 ng/ml, 48 hours)	Concentration active in stimulating synaptogenesis (hippocampal neurons)
CCCC[C@H](N)C(=O)N[C@@H](Cc1ccc(O)cc1)C(=O)N[C@H](C(=O)N[C@@H](Cc1c[nH]cn1)C(=O)N1CCC[C@H]1C(=O)N[C@@H](Cc1ccccc1)C(=O)O)[C@@H](C)CC [Nle1-AngIV, reference compound] (H-[Nle]YIHPF-OH; N-terminus and C-terminus assumed)	dramatic increase in spine numbers	22 spines per 50 μm dendrite length	0.87 μm	greater than 2 fold	2.6 spines per 50 μm dendrite length	dose-dependently stimulate spinogenesis	11 spines per 50 μm dendrite length						
HGF: Hepatocyte growth factor, recombinant, purchased from R&D Systems								18.6 spines per 50 μm dendrite leng and 16.5 spines per 50 μm dendrite leng	24.7 spines per 50 μm dendrite leng	27.5 spines per 50 μm dendrite leng and 29.3 spines per 50 μm dendrite leng	27.0 spines per 50 μm dendrite leng	18.5 spines per 50 μm dendrite length	
CCCCCC(=O)N[C@@H](Cc1ccc(O)cc1)C(=O)N[C@H](C(=O)NCCCCCC(N)=O)[C@@H](C)CC [Dihexa, N-hexanoic-Tyr-Ile-(6)-aminohexanoic amide] (Hexanoyl-Tyr-Ile-[Ahx]-NH2)	dramatic increase in spine numbers	11 spines per 50 μm dendrite length	0.80 μm	~3 fold	23.9 spines per 50 μm dendrite length	dose-dependently stimulate spinogenesis	11 spines per 50 μm dendrite length and 15.0 spines per 50 μm dendrite length						10^−12 M
